# Literature values in patent US20070048250A1, “Methods of treating concomitant constipation in a cancer treatment regimen including imexon” (AmpliMed Corporation, priority 2005, published 2007).
# Key:
# human tumor cell lines = conditions: cited from earlier work
# [1] = system: fresh human tumor cell lines; conditions: cited from earlier work
# transplanted tumors = conditions: in vivo; cited from earlier work
# mast cell tumors = conditions: dog, in vivo; cited from earlier work
# rats = conditions: numerous studies; cited from earlier work
# cancer patients = conditions: phase I; cited from earlier work
# [2] = combined with cisplatin, dacarbazine, melphalan, cytarabine, 5-fluorouracil, gemcitabine, or docetaxel; cited from earlier work
compound,measurement,setting,value
"N=C1NC(=O)N2CC12 (stereo not drawn) [imexon, 4-imino-1,3-diazabicyclo[3.1.0]-hexan-2-one]",activity against a variety of human tumor cell lines in culture,human tumor cell lines,active
same,activity against fresh human tumor cell lines in clonogenic assay,[1],active
same,cytotoxicity to multiple myeloma in the clonogenic assay,[1]; multiple myeloma,selective cytotoxicity
same,activity against a variety of transplanted tumors in rodents,transplanted tumors,active
same,tumor response in dogs with mast cell tumors,mast cell tumors,Objective responses have been observed
same,gastrointestinal lesions on pathologic examination,rats,not shown evidence of gastrointestinal lesions
same,clinical response,cancer patients,produced objective responses or stabilized neoplastic diseases
same,tolerability,cancer patients,well tolerated
same,effect of combination,[2],synergistic therapeutic cytotoxic effect
